The values below come from US4465672A, “Stable S-adenosylmethionine salts, the process for their preparation, and therapeutic compositions which contain them as active principle” (Bioresearch S.p.A., priority 1981, dated 1984).

Molecules are shown by their SMILES. Read-outs that look alike come from different tables or passages of the source.

Data set [1] can be described thus: Residual moisture of the lyophilised salt. The class given is physicochemical.
Another data set can be described thus: physchem. Particulars: for DEGRADATION AT 45° C. AFTER 120 days: 2880 h; for DEGRADATION AT 45° C. AFTER 180 days: 4320 h; for DEGRADATION AT 45° C. AFTER 240 days: 5760 h; for DEGRADATION AT 45° C. AFTER 360 days: 8640 h; for DEGRADATION AT 45° C. AFTER 60 days: 1440 h. How it is done: The residual SAM percentage at the times indicated was determined by the new method described hereinafter, which ensures maximum accuracy of measurements in that it enables the SAM to be totally separated from all possible degradation products. The present method for determining the SAM is based on the use of HPLC.

For data set [2] the following is noted: prior art salts, cited from earlier work.
Data set [3] can be described thus: Wide pharmacological screening trial. Particulars: independent of the anion bonded to the SAM.

Regarding `C[S+](CCC(N)C(=O)[O-])CC1OC(n2cnc3c(N)ncnc32)C(O)C1O` (stereo not drawn) [SAM.1.5 H2 SO4.n CH3 SO3 H, n=3], the residual moisture in data set [1] (Tables 1 to 4) is listed as 2%.
Turning to `C[S+](CCC(N)C(=O)[O-])CC1OC(n2cnc3c(N)ncnc32)C(O)C1O` (stereo not drawn) [drawing 5, n=2], in “physchem”, the “DEGRADATION AT 45° C. AFTER 120 days” value was 100%, the “DEGRADATION AT 45° C. AFTER 180 days” value was found to be 100%, the “DEGRADATION AT 45° C. AFTER 240 days” value worked out at 100% and the “DEGRADATION AT 45° C. AFTER 360 days” value was found to be 100%. Also, the residual moisture in data set [1] (Tables 1 to 4) was 0.5%.
As for `C[S+](CCC(N)C(=O)[O-])CC1OC(n2cnc3c(N)ncnc32)C(O)C1O` (stereo not drawn) [SAM.n CH3 SO3 H, n=3], in the data set “physchem”, the “DEGRADATION AT 45° C. AFTER 240 days” value turned out to be 100% and the “DEGRADATION AT 45° C. AFTER 360 days” value worked out at 100%. The residual moisture in data set [1] (Tables 1 to 4) stood at 0.8%.
Consider `C[S+](CCC(N)C(=O)[O-])CC1OC(n2cnc3c(N)ncnc32)C(O)C1O` (stereo not drawn) [SAM.1.5 H2 SO4.n CH3 SO3 H, n=1], for which the residual moisture in data set [1] (Tables 1 to 4) was 1%.
`C[S+](CCC(N)C(=O)[O-])CC1OC(n2cnc3c(N)ncnc32)C(O)C1O` (stereo not drawn) [drawing 6, n=2]: in data set [1] (Tables 1 to 4), the residual moisture is given as 1.5%.
Turning to `C[S+](CCC(N)C(=O)[O-])CC1OC(n2cnc3c(N)ncnc32)C(O)C1O` (stereo not drawn) [SAM.n CH3 SO3 H, n=6], in data set [1] (Tables 1 to 4), the residual moisture stood at 2%.
The same measure, in the same setting: the result for `C[S+](CCC(N)C(=O)[O-])CC1OC(n2cnc3c(N)ncnc32)C(O)C1O` (stereo not drawn) [drawing 5, n=4] reads 1%.
For the compound `C[S+](CCC(N)C(=O)[O-])CC1OC(n2cnc3c(N)ncnc32)C(O)C1O` (stereo not drawn) [drawing 5, n=3], in “physchem”, the “DEGRADATION AT 45° C. AFTER 240 days” value is 100% and the “DEGRADATION AT 45° C. AFTER 360 days” value worked out at 100%. Further, the “temperature up to which the salt is stable” value in data set [2] (listed as triparatoluene sulphonate) was “up to 25 °C”. For the same compound, the residual moisture in data set [1] (Tables 1 to 4) is 0.8%.
Regarding `C[S+](CCC(N)C(=O)[O-])CC1OC(n2cnc3c(N)ncnc32)C(O)C1O` (stereo not drawn) [SAM.1.5 H2 SO4.n CH3 SO3 H, n=2], the residual moisture in data set [1] (Tables 1 to 4) is listed as 1.5%.
On to `C[S+](CCC(N)C(=O)[O-])CC1OC(n2cnc3c(N)ncnc32)C(O)C1O` (stereo not drawn) [SAM.5CH3 --C6 H4 --SO3 H], for which the residual moisture in data set [1] (Tables 1 to 4, n=5) came out at 1.5%.
In “physchem” (DEGRADATION AT 45° C. AFTER 360 DAYS), `C[S+](CCC(N)C(=O)[O-])CC1OC(n2cnc3c(N)ncnc32)C(O)C1O` (stereo not drawn) [SAM.5CH3 SO3 H] yielded a degraded at 8640 h of 5%. Further, the residual moisture stood at 1.5% in data set [1] (Tables 1 to 4, listed as SAM.n CH3 SO3 H, n=5) and 1.5% in data set [1] (with or without lyophilisation support (Tables 5, 6)). In addition, the “activity and toxicity characteristics” value in data set [3] is “highly interesting activity and toxicity characteristics”.
Turning to `C[S+](CCC(N)C(=O)[O-])CC1OC(n2cnc3c(N)ncnc32)C(O)C1O` (stereo not drawn) [drawing 5, n=6], the residual moisture in data set [1] (Tables 1 to 4) is on record as 2%.
Turning to `C[S+](CCC(N)C(=O)[O-])CC1OC(n2cnc3c(N)ncnc32)C(O)C1O` (stereo not drawn) [SAM.n CH3 SO3 H, n=2], in “physchem”, the “DEGRADATION AT 45° C. AFTER 120 days” value is reported as 100%, the “DEGRADATION AT 45° C. AFTER 180 days” value is on record as 100%, the “DEGRADATION AT 45° C. AFTER 240 days” value worked out at 100% and the “DEGRADATION AT 45° C. AFTER 360 days” value was 100%. For the same compound, the residual moisture in data set [1] (Tables 1 to 4) was determined as 0.5%.
Turning to `C[S+](CCC(N)C(=O)[O-])CC1OC(n2cnc3c(N)ncnc32)C(O)C1O` (stereo not drawn) [drawing 6, n=3], the residual moisture in data set [1] (Tables 1 to 4) is 2%.
On to `C[S+](CCC(N)C(=O)[O-])CC1OC(n2cnc3c(N)ncnc32)C(O)C1O` (stereo not drawn) [SAM.n CH3 SO3 H, n=1], for which, in “physchem”, the “DEGRADATION AT 45° C. AFTER 60 days” value turned out to be 100%, the “DEGRADATION AT 45° C. AFTER 120 days” value turned out to be 100%, the “DEGRADATION AT 45° C. AFTER 180 days” value is listed as 100% and the “DEGRADATION AT 45° C. AFTER 240 days” value amounted to 100%. In “physchem”, the “DEGRADATION AT 45° C. AFTER 360 days” value worked out at 100%. Further, in data set [1] (Tables 1 to 4), the residual moisture worked out at 0.2%.
Turning to `C[S+](CCC(N)C(=O)[O-])CC1OC(n2cnc3c(N)ncnc32)C(O)C1O` (stereo not drawn) [disulphatediparatoluene sulphonate, reference compound], the “temperature up to which the salt is stable” value in data set [2] was “up to 45 °C”.
Take `C[S+](CCC(N)C(=O)[O-])CC1OC(n2cnc3c(N)ncnc32)C(O)C1O` (stereo not drawn) [SAM.n CH3 SO3 H, n=4]: in data set [1] (Tables 1 to 4), the residual moisture came to 1%.
For the compound `C[S+](CCC(N)C(=O)[O-])CC1OC(n2cnc3c(N)ncnc32)C(O)C1O` (stereo not drawn) [drawing 5, n=1], in the data set “physchem”, the “DEGRADATION AT 45° C. AFTER 60 days” value came to 100%, the “DEGRADATION AT 45° C. AFTER 120 days” value came to 100%, the “DEGRADATION AT 45° C. AFTER 180 days” value was determined as 100% and the “DEGRADATION AT 45° C. AFTER 240 days” value is recorded as 100%. In the data set “physchem”, the “DEGRADATION AT 45° C. AFTER 360 days” value is 100%. In addition, the residual moisture in data set [1] (Tables 1 to 4) amounted to 0.2%.
With `C[S+](CCC(N)C(=O)[O-])CC1OC(n2cnc3c(N)ncnc32)C(O)C1O` (stereo not drawn) [drawing 6, n=1], the residual moisture in data set [1] (Tables 1 to 4) was 1%.
